Reference: ChEMBL document CHEMBL1177789, “Inhibitors for expression of IgE receptor on human mast cell from Puerariae Flos” (Bioorg Med Chem Lett, 2010)
Active and inactive are the calls of the source. The rule behind the calls is not given here.

What was measured:
[1] = tested on: HMC1; assay: Antiallergic activity in human HMC1 cells assessed as inhibition of IgE […] receptor mRNA expression after 72 hrs by RT-PCR; format: functional, cell-based
[2] = Cytotoxicity against human HMC1 cells at 50 uM after 72 hrs; format: cell-based; conditions: hmc1, 72 h
[3] = tested on: HMC1; assay: Antiallergic activity in human HMC1 cells assessed as inhibition of IgE […] receptor expression after 72 hrs by flow cytometry; format: functional, cell-based

COc1c(O)cc2occ(-c3ccc(O)cc3)c(=O)c2c1O
inhibition [1]: Active

COc1cc2occ(-c3ccc(O)cc3)c(=O)c2cc1OC
Activity [2]: Non-toxic
inhibition [3]: Active
